The values that follow come from ChEMBL document CHEMBL1201862, “PubChem BioAssay data set” (2004).

Activity calls are given as the source filed them.

In one experiment the test system is Escherichia coli. The experiment in a line: microbe, parasite or virus in culture.
Experiment [1] has as its target T1, Orexin/Hypocretin receptor type 1 (Homo sapiens, UniProt O43613).
T1 sequence (O43613 whole entry): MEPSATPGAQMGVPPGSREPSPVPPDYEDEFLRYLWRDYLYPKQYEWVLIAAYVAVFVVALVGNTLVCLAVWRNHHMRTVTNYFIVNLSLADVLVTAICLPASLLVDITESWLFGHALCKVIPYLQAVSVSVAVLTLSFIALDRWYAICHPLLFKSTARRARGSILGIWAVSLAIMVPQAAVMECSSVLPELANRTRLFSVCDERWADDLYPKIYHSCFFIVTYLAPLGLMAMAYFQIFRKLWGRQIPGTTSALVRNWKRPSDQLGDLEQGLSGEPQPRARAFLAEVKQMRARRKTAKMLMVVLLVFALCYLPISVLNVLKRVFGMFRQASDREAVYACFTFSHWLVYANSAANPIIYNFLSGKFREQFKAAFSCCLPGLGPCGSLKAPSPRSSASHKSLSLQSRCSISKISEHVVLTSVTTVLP
The experiment in a line: Fluorescence-based cell-based high throughput dose response assay for antagonists of the orexin 1 receptor (OX1R; HCRTR1). [Related pubchem assays (depositor defined):AID434989, AID435008, AID463079, AID485270, AID492963, AID492964, AID492965, AID493232, AID504717, AID504718]. Type of experiment: functional.

The target of experiment [2] is T1, Orexin/Hypocretin receptor type 1. The experiment is described as follows: Homogeneous Time Resolved Fluorescence (HTRF)-based cell-based high throughput dose response assay for antagonists of the orexin 1 receptor (OX1R; HCRTR1). [Related pubchem assays (depositor defined):AID434989, AID435008, AID463079, AID485270, AID492963, AID492964, AID492965, AID493232, AID504717, AID504718]. Type of experiment: functional. Background: Time-resolved FRET reads energy transfer from a long-lived donor to a nearby acceptor.

A further experiment relates to CHO-K1. The experiment in a line: Counterscreen for antagonists of the orexin 1 receptor (OX1R; HCRTR1): Homogeneous time resolved fluorescence (HTRF)-based cell-based dose response assay to identify antagonists of the parental CHO-K1 cell line. [Related pubchem assays (depositor defined):AID434989, AID435008, AID463079, AID485270, AID492963, AID492964, AID492965, AID493232, AID504699, AID504701]. Particulars: Cricetulus griseus. Type of experiment: functional. In general terms: A counterscreen serves to expose hits that act by an unwanted route or on another target.

Experiment [3] is described as follows: Counterscreen for antagonists of the orexin 1 receptor (OX1R; HCRTR1): Fluorescence-based cell-based high throughput dose response assay to identify antagonists of the parental CHO cell line. [Related pubchem assays (depositor defined):AID434989, AID435008, AID463079, AID485270, AID492963, AID492964, AID492965, AID493232, AID504699, AID504701]. The experiment is classed as functional.

Experiment [4] addresses FAD-linked sulfhydryl oxidase ALR (Homo sapiens, UniProt P55789). The experiment in a line: ALR-catalysed DTT oxidation blockers – biochemical, H2O2 detection, luminescence, cherry-pick, dose response (AID 493248).
The next experiment concerns HeLa. The experiment is described as follows: ATP-based viability loss in HeLa cells – cell-based, CellTiter-Glo luminescence, cherry-pick samples, cytotoxicity control for MITF activator project, dose response (AID 540259). Particulars: Homo sapiens. The experiment is classed as functional. (In general: ATP-based viability assays read luminescence as a measure of living cells.)

Experiment [5] has as its target T2, Microphthalmia-associated transcription factor (Homo sapiens, UniProt O75030).
T2 sequence (O75030 whole entry): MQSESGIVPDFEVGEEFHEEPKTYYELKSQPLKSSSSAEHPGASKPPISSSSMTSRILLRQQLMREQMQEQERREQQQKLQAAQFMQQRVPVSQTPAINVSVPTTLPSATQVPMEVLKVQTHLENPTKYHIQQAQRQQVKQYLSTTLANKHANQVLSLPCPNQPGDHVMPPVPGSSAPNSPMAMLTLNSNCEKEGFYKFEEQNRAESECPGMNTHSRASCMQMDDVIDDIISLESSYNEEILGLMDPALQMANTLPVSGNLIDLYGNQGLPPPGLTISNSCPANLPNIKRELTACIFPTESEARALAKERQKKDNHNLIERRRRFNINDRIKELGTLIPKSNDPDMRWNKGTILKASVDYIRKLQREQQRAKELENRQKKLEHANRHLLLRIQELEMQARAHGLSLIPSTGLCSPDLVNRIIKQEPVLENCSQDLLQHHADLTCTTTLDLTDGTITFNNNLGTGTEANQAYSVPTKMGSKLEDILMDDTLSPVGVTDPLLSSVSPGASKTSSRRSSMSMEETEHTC
The experiment is described as follows: reducers of TRPM1 reporter luminescence, concentration series – cell-based, SK-MEL-5, cherry-picked, set 3, MITF inhibitor project, dose response (AID 493073).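 Note: SK-MEL-5 melanoma cells with luciferase driven by the MITF target TRPM1 promoter.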 Type of experiment: functional.

Experiment [6] is described as follows: viability of PTEN-deleted HCT116 cells – cell-based, HCT116 PTEN knockout, dose response (AID 1047).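 Note: HCT116 colon tumor cells with PTEN knocked out; cells exposed to compound for 60 hours before readout; potency for loss of cell viability measured by luminescence.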 The experiment is classed as functional.
Experiment [7] is described as follows: viability of HCT116 lacking mutant beta-catenin – cell-based, human colon tumor, dose response (AID 1045).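 Note: HCT116 colon tumor cells with beta catenin knocked out; cells exposed to compound for 60 hours.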 Type of experiment: functional.
The target of experiment [8] is Dual specificity tyrosine-phosphorylation-regulated kinase 1A (Rattus norvegicus, UniProt Q63470). Type of experiment: biochemical, Homo sapiens.
For the next experiment, the target named is T3, Aminopeptidase N (Plasmodium falciparum FcB1/Columbia, UniProt O96935).
T3 sequence (O96935 whole entry): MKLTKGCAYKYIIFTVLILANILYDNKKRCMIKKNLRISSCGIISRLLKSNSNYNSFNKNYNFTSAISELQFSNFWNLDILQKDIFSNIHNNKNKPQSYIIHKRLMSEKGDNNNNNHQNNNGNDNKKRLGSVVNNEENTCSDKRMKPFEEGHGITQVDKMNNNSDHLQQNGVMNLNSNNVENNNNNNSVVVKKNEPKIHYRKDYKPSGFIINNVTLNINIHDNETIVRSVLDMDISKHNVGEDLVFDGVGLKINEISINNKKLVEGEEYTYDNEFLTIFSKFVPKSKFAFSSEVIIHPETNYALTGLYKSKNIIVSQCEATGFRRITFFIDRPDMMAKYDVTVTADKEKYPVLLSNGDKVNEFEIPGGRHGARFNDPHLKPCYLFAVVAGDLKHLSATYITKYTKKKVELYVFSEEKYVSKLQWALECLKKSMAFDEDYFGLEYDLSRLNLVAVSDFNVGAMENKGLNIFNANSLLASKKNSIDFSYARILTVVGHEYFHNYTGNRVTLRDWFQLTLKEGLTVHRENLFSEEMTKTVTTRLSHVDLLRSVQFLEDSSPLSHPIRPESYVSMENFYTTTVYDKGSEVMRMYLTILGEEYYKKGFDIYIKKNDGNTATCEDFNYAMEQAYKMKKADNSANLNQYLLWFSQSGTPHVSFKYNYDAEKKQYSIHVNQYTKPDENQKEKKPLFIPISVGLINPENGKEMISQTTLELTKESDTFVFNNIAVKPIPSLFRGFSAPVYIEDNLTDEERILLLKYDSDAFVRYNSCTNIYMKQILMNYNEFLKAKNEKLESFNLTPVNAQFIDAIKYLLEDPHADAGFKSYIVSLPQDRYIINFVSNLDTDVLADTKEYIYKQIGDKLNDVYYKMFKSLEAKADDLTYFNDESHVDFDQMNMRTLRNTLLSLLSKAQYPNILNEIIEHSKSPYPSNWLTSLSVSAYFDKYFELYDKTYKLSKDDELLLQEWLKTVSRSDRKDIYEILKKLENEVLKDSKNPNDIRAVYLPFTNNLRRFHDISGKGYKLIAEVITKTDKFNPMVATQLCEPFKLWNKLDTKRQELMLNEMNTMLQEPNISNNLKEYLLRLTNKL
The experiment in a line: malaria alanyl aminopeptidase activity blockers – biochemical, fluorogenic H-Leu-NHMec substrate, 1536-well (AID 1445). More on the design: species or system Plasmodium falciparum 3D7, 3D7.

The next experiment addresses SUMO-activating enzyme (Homo sapiens, UniProt Q9UBT2). The experiment in a line: blockers of UBC9-mediated SUMO conjugation – biochemical, AlphaScreen, SUMOylation inhibitor project, confirmation (AID 2018). Type of experiment: functional.
For the next experiment, the system named is H4. The experiment is described as follows: Luminescence Cell-Based Dose Response HTS to Identify Activators of 5'UTR Stem-Loop Driven Prion Protein mRNA Translation in H4 Neuroglioblastoma Cells. [Related pubchem assays: 1829 (Project Summary), 1814 (Primary HTS)]. Type of experiment: functional. Particulars: Homo sapiens.
Experiment [9] is described as follows: Luminescence Cell-Based Dose Response HTS to Identify Activators of Luciferase Translation or Activity in H4 […] Cells. [Related pubchem assays: 1829 (Project Summary), 1814 (Primary HTS)]. The experiment is classed as functional.
Experiment [10] is described as follows: non-specific 3'UTR reporter inhibition in Clone20-Shn3RL – cell-based, Renilla luciferase, cherry-picked, counter-screen for Shn3 inhibitor project, dose response (AID 624133). The experiment is classed as functional.
Experiment [11] can be described thus: reduction of Shn3 3'UTR-driven luciferase in osteoblasts – cell-based, Clone20 osteoblasts, firefly luciferase, cherry-picked, dose response (AID 624132).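 Note: firefly luciferase luminescence from reporter carrying the Shn3 3'UTR in osteoblasts.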 Type of experiment: functional.
Experiment [12] in a line: loss of viability in HepG2 cells – cell-based, CellTiter-Glo, cherry-picked, cytotoxicity control for Shn3 inhibitor project, dose response (AID 624134). The experiment is classed as functional.

FAD-linked sulfhydryl oxidase ALR, sequence (P55789 whole entry): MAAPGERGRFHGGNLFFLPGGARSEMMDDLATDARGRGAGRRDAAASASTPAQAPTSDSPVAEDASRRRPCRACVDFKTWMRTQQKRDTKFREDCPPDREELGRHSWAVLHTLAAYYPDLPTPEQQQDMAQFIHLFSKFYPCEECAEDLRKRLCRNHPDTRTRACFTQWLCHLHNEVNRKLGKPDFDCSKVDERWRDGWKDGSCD
SUMO-activating enzyme, sequence (Q9UBE0 whole entry): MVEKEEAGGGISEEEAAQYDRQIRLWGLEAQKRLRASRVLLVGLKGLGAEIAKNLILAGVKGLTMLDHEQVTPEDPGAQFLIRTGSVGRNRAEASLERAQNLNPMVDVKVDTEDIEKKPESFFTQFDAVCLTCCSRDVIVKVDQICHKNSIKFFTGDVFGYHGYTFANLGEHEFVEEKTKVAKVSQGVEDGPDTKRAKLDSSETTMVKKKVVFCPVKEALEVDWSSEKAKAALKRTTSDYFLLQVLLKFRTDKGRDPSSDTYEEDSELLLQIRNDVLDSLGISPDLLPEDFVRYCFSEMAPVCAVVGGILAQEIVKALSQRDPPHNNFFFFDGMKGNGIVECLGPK
SUMO-activating enzyme, sequence (Q9UBT2 whole entry): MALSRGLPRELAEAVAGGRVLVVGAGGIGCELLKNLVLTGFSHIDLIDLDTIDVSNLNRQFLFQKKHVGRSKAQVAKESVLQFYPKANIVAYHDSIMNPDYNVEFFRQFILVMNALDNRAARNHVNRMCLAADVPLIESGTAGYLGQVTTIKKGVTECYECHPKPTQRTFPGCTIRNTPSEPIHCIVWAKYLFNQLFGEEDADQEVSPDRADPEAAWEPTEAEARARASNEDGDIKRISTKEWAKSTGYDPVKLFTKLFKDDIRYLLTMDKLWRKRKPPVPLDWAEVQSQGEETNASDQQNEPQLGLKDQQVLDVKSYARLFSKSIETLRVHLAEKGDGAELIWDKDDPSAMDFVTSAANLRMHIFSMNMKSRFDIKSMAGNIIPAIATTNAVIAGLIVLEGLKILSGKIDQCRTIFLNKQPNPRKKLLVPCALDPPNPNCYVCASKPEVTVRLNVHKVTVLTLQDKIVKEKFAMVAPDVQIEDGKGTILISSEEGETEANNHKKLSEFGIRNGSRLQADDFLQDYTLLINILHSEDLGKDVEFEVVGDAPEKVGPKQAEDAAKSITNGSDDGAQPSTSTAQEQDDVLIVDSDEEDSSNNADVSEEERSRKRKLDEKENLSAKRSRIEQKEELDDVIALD

As usually defined, the AC50 is the concentration at which the activity in the assay is half-maximal. `Oc1c(Br)cc(C2NC(c3ccccc3)=NO2)cc1Br` (stereo not given): in the experiment with Escherichia coli, the AC50 was 20.2 µM (active).

By IC50 is commonly meant the point on the concentration scale where inhibition reaches its midpoint. For the molecule `CC(C)n1c(=O)[nH][nH]c1=S`, the IC50 in [1] was 34.4 µM (inactive); in experiment [2] it was 7.04 µM (active); with CHO-K1, > 66.2 µM (inactive); in [3], > 49.8 µM (inactive).

Turning to `Nc1ccc2oc(-c3cccs3)nc2c1`, the figures for the AC50 (in experiment [4]; in the experiment on HeLa) were 0.155 µM (active) and 168 µM (active), respectively.

A word on the EC50: it is the concentration at which the effect is half-maximal. Regarding `CCOc1ccc2nc(C)cc(Nc3cccc([N+](=O)[O-])c3)c2c1`, the AC50 in experiment [5] was 17.8 µM (active). Further, the EC50 in experiment [6] was 5.88 µM (active); in [7] it was 7.34 µM (active).

`COc1cc(/C=C2/C(=N)N3C(SC)=NSC3=NC2=O)ccc1OC(=O)c1ccco1`: in [8], the AC50 was 5.64 µM (active).

For the molecule `NS(=O)(=O)c1ccc(CCNC(=O)Cc2ccc(S(=O)(=O)N3CCCC3)s2)cc1`, the IC50 on Aminopeptidase N was 8.91 µM (active). For the same molecule, the AC50 in the experiment with Escherichia coli is 39.6 µM (active).

With `CCSc1nnc(NC(=O)NC2CCCCC2)s1`, the AC50 in the experiment with HeLa is 136 µM (active).

For the molecule `CCc1ccc(NC(=O)c2nnc(O)c3ccccc23)cc1`, in the experiment with HeLa, the AC50 is > 350 µM (inactive).

With `COc1ccc(-c2nc3cc([N+](=O)[O-])ccc3[nH]2)cc1`, the IC50 on SUMO-activating enzyme is 35 µM (active).

Consider `Nc1c(C(=O)O)ccc2c1C(=O)c1ccccc1C2=O`, for which the AC50 in experiment [8] was 1.28 µM (active).

For the molecule `CCc1ccc(N2CC(C(=O)N3CCN(c4ccccn4)CC3)CC2=O)cc1` (stereo not given), the AC50 in the experiment with Escherichia coli is 29.9 µM (active).

On to `COc1ccc(CNC(=O)COC(=O)[C@H](Cc2c[nH]c3ccccc23)NC(=O)c2cccs2)cc1`, for which the IC50 was 13.1 µM (inactive) in experiment [1], 26.9 µM (inactive) in [2], > 66.2 µM (inactive) with CHO-K1 and 12.8 µM (inactive) in experiment [3].

Take `CC(C)c1ccc(/C=N/NC(=O)C2CCCC2)cc1`: the figures for the EC50 (in the experiment on H4; in experiment [9]) were 2.72 µM (active) and 8.02 µM (active), respectively. Moreover, in the experiment on HeLa, the AC50 was 132 µM (active).

As to `CC1CCC/C=C/C(=O)c2c(O)cc(O)cc2CC(=O)O1` (stereo not given), the AC50 in experiment [5] was 5.79 µM (active); in experiment [10], 13.6 µM (active); in experiment [11], 4.12 µM (active); in experiment [12] it was > 70 µM (inactive).

For the molecule `CC1CCc2cc(F)cc3c(=O)c(C(=O)O)cn1c23` (stereo not given) [FLUMEQUINE], the AC50 in the experiment with Escherichia coli is 1.99 µM (active).
